Reference: patent publication US20180085386A1, “URIDINE MONOPHOSPHATE AND TRIPHOSPHATE DERIVATIVES, COMPOSITIONS AND METHODS OF USE” (Tufts University, priority 2016, published 2018)

Assays:
[1] = tested on: PSAPP mice; assay: Plaque load in cortex and hippocampus by amyloid beta immunostaining; format: in vivo, mouse; conditions: 10 μg/kg i.p. once per day for 7 days; PS1/APP mice 26 weeks; cortex; FIG. 6B
[2] = tested on: circulating cytokines in plasma of PSAPP mice; assay: Circulating cytokine levels in plasma of PSAPP mice (multiplex); format: in vivo, mouse; conditions: vs vehicle
Protocol: As part of the study described in Example 16, the levels of numerous cytokines in plasma of mice treated with vehicle or compound 5 were also evaluated. As described in Example 16, treatment was initiated when the mice were approximately 3 months old. PSAPP mice were treated for 100 days with daily injections of 10 μg/kg of compound 5 or vehicle. Following treatment and the fear conditioning task experiment, plasma was taken for multiplex cytokine analysis of circulating cytokine levels in vehicle-treated versus compound-treated PSAPP mice. Cytokine levels are assayed using a multi-plex system where beads are labelled with capture antibody specific for each analyte tested. Each bead set is coupled to a specific capture antibody and is distinguishable from beads coupled to a different capture antibody. Thus, the levels of each analyte can be evaluated and distinguished. […] In FIGS. 10-13, compound 5 is indicated along the x-axis as “compound”.
In this study, treatment of PSAPP mice commenced when the mice were pre-symptomatic. Specifically, treatment was initiated when the mice were approximately 3 months old. PSAPP mice were treated for 100 days with daily, intraperitoneal injections of 10 μg/kg of compound 5 or vehicle. Following treatment, mice were assessed for the following: concentration of circulating pro-inflammatory cytokines; amyloid beta load (e.g., plaque burden); and memory in a fear conditioning task for memory formation. The data provided in Example 18 is for 18 vehicle treated mice and 20 compound treated mice. The data provided for the vehicle-treated group is the average across those mice, and error bars depict the standard error (SEM). Similarly, the data provided for the compound-treated group is the average across those mice, and the error bars depict the SEM. Mice were first evaluated in the fear conditioning task experiment. Subsequently, plasma was taken for multiplex cytokine analysis of circulating levels of cytokine in the plasma. Finally, plaque burden was assessed in the cortex and hippocampus of the mice.
In this study, treatment of PSAPP mice commenced after the mice were already symptomatic. Specifically, treatment was initiated when the mice were approximately 6 months old. PSAPP mice were treated for 7 days with daily, intraperitoneal injections of 10 μg/kg of compound 5 or vehicle. Following treatment, mice were assessed for the following: concentration of circulating pro-inflammatory cytokines; amyloid beta load (e.g., plaque burden); and plaque size. The data provided in Example 19 is for 7 vehicle treated mice and 7 compound treated mice. The data provided for the vehicle-treated group is the average across those mice, and error bars depict the standard error (SEM). Similarly, the data provided for the compound-treated group is the average across those mice, and the error bars depict the SEM. Plasma was taken for multiplex cytokine analysis of circulating levels of cytokine in the plasma. Subsequently, plaque burden was assessed in the cortex (using Aβ40) and hippocampus (using Aβ42) of the mice, and plaque size was also assessed.

[3] = 10 μg/kg daily for 100 days, Example 18
[4] = 10 μg/kg daily for 100 days, Example 18, FIG. 10
[5] = 10 μg/kg i.p. daily for 7 days from ~6 months (symptomatic), Example 20, FIG. 16
[6] = 10 μg/kg i.p. daily for 100 days from ~3 months, Example 19, FIG. 14

For O=c1ccn([C@@H]2O[C@H](CO)C(O)C2O)c(=O)n1Cc1noc2ccccc12 (stereo in doubt) [compound 5], the Aβ42 plaque burden [1] was “significantly reduced”, the “average plasma level of IFN-r” value [2, 3] was “reduced” and the “average plasma level of IL-1β” value [2, 3] was “reduced”. The “average plasma level of IL-2” value [2, 3] was “reduced”, the “average plasma level of IL-3” value [2, 3] was “reduced” and the “average plasma level of IL-5” value [2, 3] was “reduced”. For the same compound, the “average plasma level of IL-6” value [2, 3] was “reduced”, the “average plasma level of IL-7” value [2, 3] was “reduced” and the “average plasma level of IL-9” value [2, 3] was “reduced”. For the same compound, the “average plasma level of IL-13” value [2, 3] was “reduced”, the “average plasma level of IL-17” value [2, 3] was “reduced” and the “average plasma level of LIF” value [2, 3] was “reduced”. The “average plasma level of MIP-1α” value [2, 3] was “reduced”, the “average plasma level of MIP-1β” value [2, 3] was “reduced” and the “plasma level of Eotaxin” value [2, 3] was “no or substantially no change”. For the same compound, the “plasma level of G-CSF” value [2, 3] was “no or substantially no change”, the “plasma level of GM-CSF” value [2, 3] was “no or substantially no change” and the “plasma level of IL-1α” value [2, 3] was “no or substantially no change”. The “plasma level of IP-10” value [2, 3] was “no or substantially no change”, the “plasma level of LIX” value [2, 3] was “no or substantially no change” and the “plasma level of M-CSF” value [2, 3] was “no or substantially no change”. For the same compound, the “plasma level of MCP-1” value [2, 3] was “no or substantially no change”, the “plasma level of MIP-2” value [2, 3] was “no or substantially no change” and the “plasma level of IL-4” value [2, 4] was “statistically significant reduction”. For the same compound, the “plasma level of IL-10” value [2, 4] was “statistically significant reduction”, the “plasma level of IL-12 (IL-12(p70))” value [2, 4] was “statistically significant reduction” and the “plasma level of IL-12(p40) (p40 subunit alone)” value [2, 4] was “does not reflect a change”. For the same compound, the “plasma level of IL-10” value [2, 5] was “statistically significant reduction”, the “plasma level of IL-12 (IL-12(p70))” value [2, 5] was “statistically significant reduction” and the “plasma level of IL-13” value [2, 5] was “statistically significant reduction”. The “plasma level of IL-17” value [2, 5] was “statistically significant reduction”, the “plasma level of MIP-1a” value [2, 5] was “statistically significant reduction” and the “plasma level of MIP-1b” value [2, 5] was “statistically significant reduction”. The “plasma level of TNFα” value [2, 5] was “statistically significant reduction”, the “plasma level of IL-2” value [2, 6] was “statistically significant reduction” and the “plasma level of IL-4” value [2, 6] was “statistically significant reduction”. The “plasma level of IL-10” value [2, 6] was “statistically significant reduction”, the “plasma level of IL-12 (IL-12(p70))” value [2, 6] was “statistically significant reduction” and the “plasma level of IL-13” value [2, 6] was “statistically significant reduction”. The “plasma level of IL-17” value [2, 6] was “statistically significant reduction”, the “plasma level of MIP-1a” value [2, 6] was “statistically significant reduction” and the “plasma level of MIP-1b” value [2, 6] was “statistically significant reduction”.
